Square brackets hold non-standard residues; d marks the D form. Peptide text beside a SMILES is read from it. * marks the point of attachment. 5FAM = O=C1OC2(c3ccc(O)cc3Oc3cc(O)ccc32)c2ccc(C(=O)*)cc21
Target: T1, Aβ1–42 fibrils (Homo sapiens, UniProt P05067)
T1 construct: Aβ1–42 was dissolved in hexafluoroisopropanol (HFIP)
Assay: SPR single cycle experiments (Biacore T100), heterogeneous ligand model
Assay type: binding
Parameters: Rmax1 / Rmax2 / k off2: unit not given here
Details: for Rmax2 / k off1 / k off2 / k on1 / k on2 / Rmax1: PBS pH 7.4, 25°C, 30 µl/min; for Rmax1: global fit of three lowest responding concentrations
Description: Aβ1–42 fibrils were prepared as described above. Thereafter, the sample was centrifuged for 10 min at 16000×g, the supernatant discarded and this procedure repeated for 3 times. Formation of fibrils was confirmed by a standard Thioflavin-T fluorescence assay. Aβ1–42 fibrils were covalently immobilized on a CM5 sensor chip via amine coupling. Prior to immobilization of Aβ1–42 fibrils the sample was centrifuged and fibrils resuspended in 10 mM sodium acetate buffer pH 4.0. Flow cell sensor surfaces were activated with a freshly prepared solution of 0.2 M 1-ethyl–3-(3-dimethylaminopropyl)-carbodiimide (EDC) and 0.05 M N-hydroxysuccinimide (NHS) at a constant flow rate of 10 µl/min for 420 s. Aβ1–42 fibrils (∼ 110 µM monomeric Aβ1–42) were injected for 600 s with a flow rate of 10 µl/min. Deactivation of the surface was performed by injection of 1 M ethanolamine-HCl pH 8.5 at the same flow rate and duration as in the activation step. In the reference cells the deactivation step was performed directly after the activation step. All SPR experiments were performed on a Biacore T100 system with series S CM5 sensor chips at 25°C. The system was run with the Biacore T100 Control Software Version 1.1.1. PBS (10 mM sodium phosphate buffer pH 7.4, 137 mM NaCl, 2.7 mM KCl) was chosen as running buffer (as previously during fibril formation) in order to minimize alterations of fibril organization. All buffers were sterile filtered (0.22 µm). After each docking of a sensor chip the detector was normalized with BIAnormalizing solution (70% glycerol, GE Healthcare) to compensate for slight differences in detector responses of individual sensor chips. For all interaction analyses the Type 1 reagent rack was used. Siliconized sample vials were used with their corresponding rubber caps (Type 2, GE Healthcare) to minimize evaporation effects. Throughout all runs the flow rate was set to 30 µl/min. All interaction studies were performed in single-cycle mode. Here, five different concentrations of analyte were passed through a reference cell and subsequently through flow cells with immobilized ligand within the same binding cycle for 60 seconds, starting with the lowest concentration. Successive injections were performed in the order of increasing concentrations. Each following concentration was a fivefold increase of the previous. The lowest analyte concentration was chosen to be 100 nM and therefore the following were 500, 2500, 12500 and 62500 nM. Biacore data were evaluated using BiaEvaluation 4.1.1 (GE Healthcare) and Biacore T100 Evaluation Software (GE Healthcare). Obtained binding data with compounds were double referenced. This was achieved by collecting the data in dual-channel mode with a reference flow cell connected upstream of the flow cell with immobilized Aβ1–42 fibrils and the subtraction of the obtained binding responses with a blank buffer injection (PBS).

T1 sequence (P05067 672-713 limits assumed): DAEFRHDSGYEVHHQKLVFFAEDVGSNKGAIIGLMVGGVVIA

Rmax2 | k off1 | k off2 | k on1 | k on2 | Rmax1 | dissociation constant (lowest K D of the two, words) | SMILES
36.2 | 1.84e-3 | 0.0407 | 206 | 1.57e3 | 43.3 |  | CC[C@@H](C)[C@@H](NC(=O)[C@@H](Cc1c[nH]cn1)NC(=O)[C@@H](CCCNC(=N)N)NC(=O)[C@@H](Cc1ccc(O)cc1)NC(=O)[C@@H](Cc1c[nH]cn1)NC(=O)[C@@H](CO)NC(=O)[C@H](N)CCC(N)=O)C(=O)N[C@H](CO)C(=O)N1CCC[C@@H]1C(=O)N[C@H](C)C(=O)N[C@H](CCC(N)=O)C(=O)N[C@H](CCCCN)C(=O)N[C@H](CCCCNC(=O)c1ccc2c(c1)C(=O)OC21c2ccc(O)cc2Oc2cc(O)ccc21)C(=O)O [ACI-87-Kϕ] (H-[dQ][dS][dH][dY][dR][dH][dI][dS][dP][dA][dQ][dK][dK](5FAM)-OH; N-terminus and C-terminus assumed)
63.3 | 7.22e-3 | 0.0553 | 1.71e4 | 930 | 9.96 | submicromolar range | CC[C@@H](C)[C@@H](NC(=O)[C@@H](Cc1c[nH]cn1)NC(=O)[C@@H](CCCNC(=N)N)NC(=O)[C@@H](Cc1ccc(O)cc1)NC(=O)[C@@H](Cc1c[nH]cn1)NC(=O)[C@H](N)CO)C(=O)N[C@H](CO)C(=O)N1CCC[C@@H]1C(=O)N[C@H](C)C(=O)N[C@H](CCC(N)=O)C(=O)N[C@H](CCCCN)C(=O)N[C@H](CCCCNC(=O)c1ccc2c(c1)C(=O)OC21c2ccc(O)cc2Oc2cc(O)ccc21)C(=O)O [ACI-88-Kϕ] (H-[dS][dH][dY][dR][dH][dI][dS][dP][dA][dQ][dK][dK](5FAM)-OH; N-terminus and C-terminus assumed)
19.4 | 0.162 | 0.0118 | 2.03e4 | 3.34e3 | 21.8 |  | CC[C@@H](C)[C@@H](NC(=O)[C@@H](Cc1c[nH]cn1)NC(=O)[C@@H](CCCNC(=N)N)NC(=O)[C@@H](Cc1ccc(O)cc1)NC(=O)[C@@H](Cc1c[nH]cn1)NC(=O)[C@@H](CO)NC(=O)[C@H]1CCCN1)C(=O)N[C@H](CO)C(=O)N1CCC[C@@H]1C(=O)N[C@H](C)C(=O)N[C@H](CCC(N)=O)C(=O)N[C@H](CCCCN)C(=O)N[C@H](CCCCNC(=O)c1ccc2c(c1)C(=O)OC21c2ccc(O)cc2Oc2cc(O)ccc21)C(=O)O [ACI-89-Kϕ] (H-[dP][dS][dH][dY][dR][dH][dI][dS][dP][dA][dQ][dK][dK](5FAM)-OH; N-terminus and C-terminus assumed)
